Results on six molecules are retold here after patent publication US20230242641A1, “SLAMF7 CARS” (JULIUS-MAXIMILIANS-UNIVERSITÄT WÜRZBURG, priority 2020, published 2023).

Like-named read-outs stand apart in the source and are kept apart here.

One series has as its system MM.1S cells. The settings on record: cited from earlier work.
In a further series the test system is multiple myeloma. The settings on record: cited from earlier work.
Series [1] has as its system CD34+ hematopoietic stem cells. The settings on record: cited from earlier work.
Another series deals with SLAMF7. Particulars: cited from earlier work.
Another series deals with CAR-T cell-induced CRS. Particulars: 45 pediatric and adult patients; 31 patients; 95% CI: 53%-82%; cited from earlier work.
The target of series [2] is T1, mouse SLAMF7 molecule linked to a Twin-Strep Tag (mice, UniProt Q8BHK6 23-224, limits assumed).
T1 construct: also called SLAMF7 of mice; not shown: Twin-Strep Tag
The series can be described thus: flow cytometry: LV-RP cells incubated with Twin-Strep tagged SLAMF7 of different species, stained with anti-Strep Tag antibody (FIG. 37). An excerpt: SLAMF7 molecules linked to a Twin-Strep Tag were stained by an anti-Strep Tag antibody.
A general note: Flow cytometry measures light scatter and fluorescence of single cells or particles in a stream.

As for `CC(C)C[C@H](NC(=O)[C@H](Cc1ccccc1)NC(=O)c1cnccn1)B(O)O` [Bortezomib], the “eradication of MM.1S” value in the series on MM.1S cells (after 72 hours of treatment) was “less than 30%”.

For `Nc1cccc2c1CN(C1CCC(=O)NC1=O)C2=O` (stereo not drawn) [Lenalidomide], in the series with MM.1S cells (after 72 hours of treatment), the “eradication of MM.1S” value is given as “about 40%”.

Take `N[C@@H](Cc1ccc(N(CCCl)CCCl)cc1)C(=O)O` [Melphalan]: the “eradication of MM.1S” value in the series with MM.1S cells (after 48 hours of treatment) is “less than 40%”.

Consider “Elotuzumab: SLAMF7-specific monoclonal antibody huLuc63”, for which, in the series on multiple myeloma (after three years), the “interim overall survival rate” value was 60%. For the same molecule, the “rate of progression-free survival” value in the series with multiple myeloma (at one year after beginning of treatment, elotuzumab group vs control group (only Lenalidomid and dexmethason)) is given as 68%. In the series on multiple myeloma (in vivo), the “infection rate compared to the control group” value is “No significant increase in the infection rate” and the “lymphocyte reduction after the initial infusion” value is on record as 77%. Besides, the “binding to CD34+ hematopoietic stem cells” value in series [1] is “No binding”. Moreover, the “eradication of MM.1S” value in the series on MM.1S cells (after 72 hours of treatment) was “less than 70%”. For the same molecule, in the series on SLAMF7, the species cross-reactivity result is on record as “lack of species cross-reactivity”.

As for “tocilizumab: recombinant humanized monoclonal antibody that blocks IL-6 from binding to its receptor”, the “patients achieving a response (resolution of CRS within 14 days of the first dose)” value in the series with CAR-T cell-induced CRS was 69%.

B1: SLAMF7 binding chimeric antigen receptor (CAR) polypeptide, expressed on human T cells (other)
chain: EVQLVESGGGLVQPGGSLRLSCAASGFDFSRYWMSWVRQAPGKGLEWIGEINPDSSTINYAPSLKDKFIISRDNAKNSLYLQMNSLRAEDTAVYYCARPDGNYWYFDVWGQGTLVTVSSGGGGSGGGGSGGGGSDIQMTQSPSSLSASVGDRVTITCKASQDVGIAVAWYQQKPGKVPKLLIYWASTRHTGVPDRFSGSGSGTDFTLTISSLQPEDVATYYCQQYSSYPYTFGQGTKVEIKESKYGPPCPPCPAPPVAGPSVFLFPPKPKDTLMISRTPEVTCVVVDVSQEDPEVQFNWYVDGVEVHNAKTKPREEQFQSTYRVVSVLTVLHQDWLNGKEYKCKVSNKGLPSSIEKTISKAKGQPREPQVYTLPPSQEEMTKNQVSLTCLVKGFYPSDIAVEWESNGQPENNYKTTPPVLDSDGSFFLYSRLTVDKSRWQEGNVFSCSVMHEALHNHYTQKSLSLSLGKMFWVLVVVGGVLACYSLLVTVAFIIFWVRSKRSRGGHSDYMNMTPRRPGPTRKHYQPYAPPRDFAAYRSRVKFSRSADAPAYQQGQNQLYNELNLGRREEYDVLDKRRGRDPEMGGKPRRKNPQEGLYNELQKDKMAEAYSEIGMKGERRRGKGHDGLYQGLSTATKDTYDALHMQALPPR
notes: also called SLAMF7 CAR; SLAMF7-CAR
Consider B1, for which the binding result in series [2] is “no binding”.
